Results as given in US20220023358A1, “COMBINATION THERAPIES OF MICROORGANISMS AND IMMUNE MODULATORS FOR USE IN TREATING CANCER” (Synlogic Operating Company, Inc., priority 2018, published 2022).

Assays:
[1] = test system: RAW 264.7 macrophages or WT BMDCs; test: Cytokine mRNA in RAW 264.7 macrophages or WT BMDCs, with or without Cytochalasin D; assay type: cell-based, murine
Procedure: (§1) In indicated groups cells were pre-treated with for lh with Cytochalasin D (10 μM). Macrophages or BMDCs incubated in media alone served as a negative control. Cells were analyzed for the upregulation of Ifnbl and 116 mRNA (FIGS. 7D-7G). WT, TLR4^−/− and STING-^−/− BMDCs were treated with Control EcN (MOI: 25), pre-induced SYN1891 (MOI: 25), LPS (100 ng/mL), or smSTING agonist (5 μg/mL) for 4 hours. Cells were analyzed for the upregulation of Ifnb1, Il6 and Il12a mRNA (FIGS. 7H-7J). Data are representative of two or more independent experiments with mean and standard deviation shown. **P<0.005; ***P<0.0005; ****P<0.00001; two-tailed unpaired Student's t-test comparing the indicated groups.
To evaluate the mechanism of action of SYNB1891 in the induction of type I IFNs, bacterial phagocytosis was blocked using cytochalasin D. Cytochalasin D inhibits actin polymerization and prevents phagocytosis, yet it has minimal effect on endocytosis/pinocytosis of soluble small molecules. […] Therefore, phagocytosis of SYNB1891 is required for intracellular CDA release and STING activation in target cells, providing a natural mechanism for preferential activation of APCs in the tumor.

[2] = test system: WT, TLR4−/− and STING−/− BMDCs; test: Cytokine mRNA in WT, TLR4−/− and STING−/− BMDCs; assay type: cell-based, murine; settings: 4 hours
Procedure: as §1
LPS is an integral component of the outer membrane of Gram-negative bacteria and as such LPS recognition by TLR4 plays an important role in the induction of immune responses by these microbes.

NK cells = settings: first-in-human clinical trial; cited from earlier work
[3] = test system: Hyaluronan or Hyaluronic acid (HA); settings: mouse PDA tumors; cited from earlier work

Nc1ncnc2c1ncn2[C@@H]1O[C@@H]2COP(O)(=S)O[C@@H]3C(O)[C@@H](COP(O)(=S)O[C@H]2[C@H]1O)O[C@H]3n1cnc2c(N)ncnc21 (stereo partly drawn) [smSTING agonist, 2′3′-c-di-AM(PS)2 (Rp,Rp)]
Cytokines expressed ([1]; 4 hours, 5 μg/mL): led only to IFNβ1 expression | IFNβ1 induction, effect of Cytochalasin D ([1]; Cytochalasin D pre-treatment): did not affect | IFNβ1 expression in STING−/− BMDCs ([2]; STING−/− BMDCs): completely abrogated | IFNβ1 expression in TLR4−/− BMDCs ([2]; TLR4−/− BMDCs): preserved

recombinant human IL-15: recombinant human IL-15 cytokine
Expansion of NK cells (NK cells): 10 fold

B1: PEGPH20: PEGylated form of rHuPH20, a hyaluronidase (protein, UniProt P38567 36-490, looked up)
Hyaluronidase PH-20: LNFRAPPVIPNVPFLWAWNAPSEFCLGKFDEPLDMSLFSFIGSPRINATGQGVTIFYVDRLGYYPYIDSITGVTVNGGIPQKISLQDHLDKAKKDITFYMPVDNLGMAVIDWEEWRPTWARNWKPKDVYKNRSIELVQQQNVQLSLTEATEKAKQEFEKAGKDFLVETIKLGKLLRPNHLWGYYLFPDCYNHHYKKPGYNGSCFNVEIKRNDDLSWLWNESTALYPSIYLNTQQSPVAATLYVRNRVREAIRVSKIPDAKSPLPVFAYTRIVFTDQVLKFLSQDELVYTFGETVALGASGIVIWGTLSIMRSMKSCLLLDNYMETILNPYIINVTLAAKMCSQVLCQEQGVCIRKNWNSSDYLHLNPDNFAIQLEKGGKFTVRGKPTLEDLEQFSEKFYCSCYSTLSCKEKADVKDTDAVDVCIADGVCIDAFLKPPMETEEPQIFYNASPSTLS
modifications: PEG
notes: PEGylated form of rHuPH20, a hyaluronidase
Interstitial fluid pressure after treatment [3]: 20-30 mmHg
